Reference: patent US20230024096A1, “BIFUNCTIONAL COMPOUNDS FOR THE TREATMENT OF CANCER” (Hoffmann-La Roche Inc., priority 2019, published 2023)

Biological target: T1, SMARCA2 (Homo sapiens, UniProt P51531)
T1 construct: endogenous in cells; host or cells: HT1080 (CRISPR HiBiT knock-in clone, generated in house)
Assay: SMARCA2 HiBiT degradation assay (cellular)
Format: cell-based
Conditions: table head names A549; for DC50: 6 h incubation, HiBiT-tagged SMARCA2, luminescence read-out, read-out: HiBit A549 SMARCA2 IP (nM) 6 h; for Emax: A549, 6 h incubation, Emax = amount of residual protein remaining in the cell following compound treatment

T1 sequence (P51531 whole entry): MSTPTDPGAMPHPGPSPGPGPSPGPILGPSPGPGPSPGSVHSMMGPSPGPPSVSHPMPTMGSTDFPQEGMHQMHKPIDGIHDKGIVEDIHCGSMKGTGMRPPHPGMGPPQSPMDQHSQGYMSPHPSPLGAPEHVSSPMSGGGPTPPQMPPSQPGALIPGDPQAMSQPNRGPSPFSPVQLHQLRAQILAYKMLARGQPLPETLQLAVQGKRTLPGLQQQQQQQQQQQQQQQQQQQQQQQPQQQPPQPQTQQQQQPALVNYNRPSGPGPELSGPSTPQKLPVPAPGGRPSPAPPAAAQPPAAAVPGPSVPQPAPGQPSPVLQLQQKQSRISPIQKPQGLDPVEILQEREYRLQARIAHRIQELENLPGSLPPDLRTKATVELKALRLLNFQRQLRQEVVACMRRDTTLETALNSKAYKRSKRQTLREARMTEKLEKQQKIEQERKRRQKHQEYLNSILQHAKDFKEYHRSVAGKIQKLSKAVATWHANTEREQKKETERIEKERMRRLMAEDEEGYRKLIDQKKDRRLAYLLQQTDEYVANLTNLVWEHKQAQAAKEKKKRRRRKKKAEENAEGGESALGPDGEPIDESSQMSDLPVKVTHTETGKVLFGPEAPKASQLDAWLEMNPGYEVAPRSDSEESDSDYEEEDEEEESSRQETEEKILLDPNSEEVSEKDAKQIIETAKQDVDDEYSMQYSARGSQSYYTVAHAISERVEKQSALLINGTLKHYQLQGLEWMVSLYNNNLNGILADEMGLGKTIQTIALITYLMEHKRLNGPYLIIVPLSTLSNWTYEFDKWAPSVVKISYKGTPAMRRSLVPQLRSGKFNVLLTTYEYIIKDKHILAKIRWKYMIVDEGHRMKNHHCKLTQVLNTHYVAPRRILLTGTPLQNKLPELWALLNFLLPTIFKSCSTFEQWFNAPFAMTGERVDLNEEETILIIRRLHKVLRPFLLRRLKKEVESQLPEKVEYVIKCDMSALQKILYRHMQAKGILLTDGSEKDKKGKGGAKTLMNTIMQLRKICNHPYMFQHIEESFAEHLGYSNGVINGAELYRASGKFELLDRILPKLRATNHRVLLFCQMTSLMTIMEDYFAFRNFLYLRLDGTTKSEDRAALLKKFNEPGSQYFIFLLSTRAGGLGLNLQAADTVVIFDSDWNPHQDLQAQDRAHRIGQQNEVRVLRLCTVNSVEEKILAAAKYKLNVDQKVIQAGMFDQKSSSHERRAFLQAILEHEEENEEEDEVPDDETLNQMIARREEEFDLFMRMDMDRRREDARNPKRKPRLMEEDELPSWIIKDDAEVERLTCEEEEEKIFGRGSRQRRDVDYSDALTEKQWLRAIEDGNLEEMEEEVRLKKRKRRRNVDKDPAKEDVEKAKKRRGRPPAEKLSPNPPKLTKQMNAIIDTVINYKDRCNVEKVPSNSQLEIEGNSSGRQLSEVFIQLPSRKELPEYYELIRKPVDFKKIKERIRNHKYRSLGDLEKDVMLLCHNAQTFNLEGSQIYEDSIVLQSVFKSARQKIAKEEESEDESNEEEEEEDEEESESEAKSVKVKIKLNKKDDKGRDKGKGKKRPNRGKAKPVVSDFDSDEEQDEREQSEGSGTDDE

SMILES | DC50 | Emax
Nc1nnc(-c2ccccc2O)cc1N1CC2CCC(C1)N2c1cccc(CN2CCN(C(=O)CN3CCN(c4ccc(OC5CCC(=O)NC5=O)cc4)CC3)CC2)c1 (racemic) [Example 195, rac-3-[4-[4-[2-[4-[[3-[3-[3-Amino-6-(2-hydroxyphenyl)pyridazin-4-yl]-3,8-diazabicyclo[3.2.1]octan-8-yl]phenyl]methyl]piperazin-1-yl]-2-oxo-ethyl]piperazin-1-yl]phenoxy]piperidine-2,6-dione] | 72 nM | 60%
Nc1nnc(-c2ccccc2O)cc1N1CCC(C(=O)NCC2CCN(C(=O)CN3CCC(c4ccc(OC5CCC(=O)NC5=O)cc4)CC3)CC2)(c2ccccc2)CC1 (stereo not shown) [Example 101, 1-(3-amino-6-(2-hydroxyphenyl)pyridazin-4-yl)-N-((1-(2-(4-(4-((2,6-dioxopiperidin-3-yl)oxy)phenyl)piperidin-1-yl)acetyl)piperidin-4-yl)methyl)-4-phenylpiperidine-4-carboxamide] | 102 nM | 28%
Nc1nnc(-c2ccccc2O)cc1N1CC2CCC(C1)N2c1cccc(CN2CCC(C(=O)N3CCC(c4ccc(OC5CCC(=O)NC5=O)cc4)CC3)CC2)c1 (racemic) [Example 92, rac-3-[4-[1-[1-[[3-[3-[3-amino-6-(2-hydroxyphenyl)pyridazin-4-yl]-3,8-diazabicyclo[3.2.1]octan-8-yl]phenyl]methyl]piperidine-4-carbonyl]-4-piperidyl]phenoxy]piperidine-2,6-dione] | 17 nM | 41%
Nc1nnc(-c2ccccc2O)cc1N1CC2CCC(C1)N2c1cccc(CN2CCN(C(=O)CC3CCN(c4ccc5c(c4)C(=O)N(C4CCC(=O)NC4=O)C5=O)CC3)CC2)c1 (racemic) [Example 48, rac-5-[4-[2-[4-[[3-[3-[3-Amino-6-(2-hydroxyphenyl)pyridazin-4-yl]-3,8-diazabicyclo[3.2.1]octan-8-yl]phenyl]methyl]piperazin-1-yl]-2-oxo-ethyl]-1-piperidyl]-2-(2,6-dioxo-3-piperidyl)isoindoline-1,3-dione] | 15 nM | 45%
Nc1nnc(-c2ccccc2O)cc1N1CCC(C(=O)N2CC3(CCN(CC4CCN(c5ccc6c(c5)C(=O)N(C5CCC(=O)NC5=O)C6=O)CC4)C3)C2)(c2ccccc2)CC1 (stereo not shown) [Example 190, 5-(4-((2-(1-(3-amino-6-(2-hydroxyphenyl)pyridazin-4-yl)-4-phenylpiperidine-4-carbonyl)-2,6-diazaspiro[3.4]octan-6-yl)methyl)piperidin-1-yl)-2-(2,6-dioxopiperidin-3-yl)isoindoline-1,3-dione] | 22 nM | 29%
Nc1nnc(-c2ccccc2O)cc1N1CCC(C(=O)N2CCC3(CC2)CN(C(=O)CN2CCC(c4ccc(NC5CCC(=O)NC5=O)cc4)CC2)CCO3)(c2ccccc2)CC1 (stereo not shown) [Example 169, 3-((4-(1-(2-(9-(1-(3-amino-6-(2-hydroxyphenyl)pyridazin-4-yl)-4-phenylpiperidine-4-carbonyl)-1-oxa-4,9-diazaspiro[5.5]undecan-4-yl)-2-oxoethyl)piperidin-4-yl)phenyl)amino)piperidine-2,6-dione] | 49 nM | 56%
Nc1nnc(-c2ccccc2O)cc1N1CCC(C(=O)N2CCC(C(=O)N3CCC(c4ccc(NC5CCC(=O)NC5=O)cn4)CC3)CC2)(c2ccccc2)CC1 (stereo not shown) [Example 177, 3-((6-(1-(1-(1-(3-amino-6-(2-hydroxyphenyl)pyridazin-4-yl)-4-phenylpiperidine-4-carbonyl)piperidine-4-carbonyl)piperidin-4-yl)pyridin-3-yl)amino)piperidine-2,6-dione] | 174 nM | 69%
Nc1nnc(-c2ccccc2O)cc1N1CC2CCC(C1)N2c1cccc(OCCN2CCN(C(=O)CCC(=O)N3CCC(Oc4ccc5c(c4)C(=O)N(C4CCC(=O)NC4=O)C5=O)CC3)CC2)c1 (racemic) [Example 10, rac-5-[[1-[4-[4-[2-[3-[3-[3-amino-6-(2-hydroxyphenyl)pyridazin-4-yl]-3,8-diazabicyclo[3.2.1]octan-8-yl]phenoxy]ethyl]piperazin-1-yl]-4-oxo-butanoyl]-4-piperidyl]oxy]-2-(2,6-dioxo-3-piperidyl)isoindoline-1,3-dione] | 58 nM | 49%
Nc1nnc(-c2ccccc2O)cc1N1CCC(OCC(=O)NC2CCN(C(=O)CN3CCC(c4ccc(OC5CCC(=O)NC5=O)cc4)CC3)CC2)(c2ccccc2)CC1 (stereo not shown) [Example 194, 2-[[1-[3-amino-6-(2-hydroxyphenyl)pyridazin-4-yl]-4-phenyl-4-piperidyl]oxy]-N-[1-[2-[4-[4-[(2,6-dioxo-3-piperidyl)oxy]phenyl]-1-piperidyl]acetyl]-4-piperidyl]acetamide] | 67 nM | 61%

Further lines, results first:

DC50 | Emax | SMILES
133 nM | 61% | Nc1nnc(-c2ccccc2O)cc1OC1CCCN(c2ccc(N3CCN(C(=O)CCCCCCCCN4CCC(Oc5ccc6c(c5)C(=O)N(C5CCC(=O)NC5=O)C6=O)CC4)CC3)cc2)C1 (stereo not shown) [Example 44, 5-[[1-[9-[4-[4-[3-[3-amino-6-(2-hydroxyphenyl)pyridazin-4-yl]oxy-1-piperidyl]phenyl]piperazin-1-yl]-9-oxo-nonyl]-4-piperidyl]oxy]-2-(2,6-dioxo-3-piperidyl)isoindoline-1,3-dione]
59 nM | 37% | Nc1nnc(-c2ccccc2O)cc1N1CCC(C(=O)NCC2CCN(C(=O)C3CCN(c4ccc5c(c4)C(=O)N(C4CCC(=O)NC4=O)C5=O)CC3)CC2)(c2ccccc2)CC1 (stereo not shown) [Example 86, 1-[3-amino-6-(2-hydroxyphenyl)pyridazin-4-yl]-N-[[1-[1-[2-(2,6-dioxo-3-piperidyl)-1,3-dioxo-isoindolin-5-yl]piperidine-4-carbonyl]-4-piperidyl]methyl]-4-phenyl-piperidine-4-carboxamide]
30 nM | 42% | Nc1nnc(-c2ccccc2O)cc1N1CC(Oc2ccc(C(=O)N3CCN(C(=O)C4CCN(c5ccc6c(c5)C(=O)N(C5CCC(=O)NC5=O)C6=O)CC4)CC3)c(Cl)c2)C1 (racemic) [Example 125, rac-5-[4-[4-[4-[1-[3-amino-6-(2-hydroxyphenyl)pyridazin-4-yl]azetidin-3-yl]oxy-2-chloro-benzoyl]piperazine-1-carbonyl]-1-piperidyl]-2-(2,6-dioxo-3-piperidyl)isoindoline-1,3-dione]
272 nM | 63% | Nc1nnc(-c2ccccc2O)cc1N1CCC(C(=O)NCC2CCN(CC3CCN(c4ccc5c(c4)C(=O)N(C4CCC(=O)NC4=O)C5=O)CC3)CC2)(c2ccccc2)C1 (stereo not drawn) [Example 124, 1-[3-amino-6-(2-hydroxyphenyl)pyridazin-4-yl]-N-[[1-[[l-[2-(2,6-dioxo-3-piperidyl)-1,3-dioxo-isoindolin-5-yl]-4-piperidyl]methyl]-4-piperidyl]methyl]-3-phenyl-pyrrolidine-3-carboxamide]
535 nM | 63% | Nc1nnc(-c2ccccc2O)cc1OC1CCCN(c2ccc(N3CCN(CC4CN(C(=O)CCCCn5cc(COc6cccc7c6C(=O)N(C6CCC(=O)NC6=O)C7=O)nn5)C4)CC3)cc2)C1 (racemic) [Example 137, 2-(2,6-dioxo-3-piperidyl)-4-[[1-[5-oxo-5-[3-[[4-[4-[rac-(3S)-3-[3-amino-6-(2-hydroxyphenyl)pyridazin-4-yl]oxy-1-piperidyl]phenyl]piperazin-1-yl]methyl]azetidin-1-yl]pentyl]triazol-4-yl]methoxy]isoindoline-1,3-dione]
